Read-outs that look alike come from different tables or passages of the source.

The record followed here is patent US9890139B2, “CYP17 inhibitors/antiandrogens” (Orion Corporation, priority 2013, dated 2018).

One test addresses T1, 17,20 lyase (CYP17) (Homo sapiens, UniProt P05093).
T1 construct: endogenous in cells; host or cells: H295R human adrenocortical carcinoma cells
T1 sequence (P05093 1-508): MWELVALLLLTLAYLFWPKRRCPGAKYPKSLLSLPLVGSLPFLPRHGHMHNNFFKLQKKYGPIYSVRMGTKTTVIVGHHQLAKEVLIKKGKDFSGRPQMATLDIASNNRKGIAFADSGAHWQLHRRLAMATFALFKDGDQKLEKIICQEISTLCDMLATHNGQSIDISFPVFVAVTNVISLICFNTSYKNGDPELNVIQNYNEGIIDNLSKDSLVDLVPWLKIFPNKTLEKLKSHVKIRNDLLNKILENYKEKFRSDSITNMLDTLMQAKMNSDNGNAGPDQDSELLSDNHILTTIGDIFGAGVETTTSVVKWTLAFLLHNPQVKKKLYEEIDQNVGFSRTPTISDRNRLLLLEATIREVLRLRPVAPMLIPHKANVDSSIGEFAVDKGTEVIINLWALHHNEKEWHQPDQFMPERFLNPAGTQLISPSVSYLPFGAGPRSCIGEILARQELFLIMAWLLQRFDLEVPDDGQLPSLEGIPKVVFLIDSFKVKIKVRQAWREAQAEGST
The test can be described thus: 17,20 lyase (CYP17) inhibition, acetic acid release assay (AARA) on H295R cells. The class given is cell-based. On the procedure:
The ability of the test compounds to inhibit 17,20 lyase catalysed conversion of 17α-hydroxypregnenolone to dehydroepiandrosterone and acetic acid was measured by acetic acid release assay (AARA) on human H295R adrenocortical carcinoma cell line (Grigoryev, D. N. et al., Analytical Biochemistry 1999; 267:319-330). […] The final DMSO concentration was 1%. Cell culture medium was extracted with dextran-coated charcoal suspension (Isomaa, V. et al., Endocrinology 1982; 111(3):833-843). ^3H-acetic acid was determined by mixing 100 μl of supernatant fraction in 200 μl of scintillation fluid (OptiPhase SuperMix, Perkin Elmer). Radioactivity was measured using a Microbeta scintillation counter (1450 MicroBeta Trilux, Wallac). All the test compounds were studied in quadruplicates.

The next test addresses T2, full-length human AR (Homo sapiens, UniProt P10275).
T2 construct: expression vector encoding full-length human AR; expressed in transfected cells; host or cells: HEK293 (hAR/HEK293 cells)
T2 sequence (P10275 1-920): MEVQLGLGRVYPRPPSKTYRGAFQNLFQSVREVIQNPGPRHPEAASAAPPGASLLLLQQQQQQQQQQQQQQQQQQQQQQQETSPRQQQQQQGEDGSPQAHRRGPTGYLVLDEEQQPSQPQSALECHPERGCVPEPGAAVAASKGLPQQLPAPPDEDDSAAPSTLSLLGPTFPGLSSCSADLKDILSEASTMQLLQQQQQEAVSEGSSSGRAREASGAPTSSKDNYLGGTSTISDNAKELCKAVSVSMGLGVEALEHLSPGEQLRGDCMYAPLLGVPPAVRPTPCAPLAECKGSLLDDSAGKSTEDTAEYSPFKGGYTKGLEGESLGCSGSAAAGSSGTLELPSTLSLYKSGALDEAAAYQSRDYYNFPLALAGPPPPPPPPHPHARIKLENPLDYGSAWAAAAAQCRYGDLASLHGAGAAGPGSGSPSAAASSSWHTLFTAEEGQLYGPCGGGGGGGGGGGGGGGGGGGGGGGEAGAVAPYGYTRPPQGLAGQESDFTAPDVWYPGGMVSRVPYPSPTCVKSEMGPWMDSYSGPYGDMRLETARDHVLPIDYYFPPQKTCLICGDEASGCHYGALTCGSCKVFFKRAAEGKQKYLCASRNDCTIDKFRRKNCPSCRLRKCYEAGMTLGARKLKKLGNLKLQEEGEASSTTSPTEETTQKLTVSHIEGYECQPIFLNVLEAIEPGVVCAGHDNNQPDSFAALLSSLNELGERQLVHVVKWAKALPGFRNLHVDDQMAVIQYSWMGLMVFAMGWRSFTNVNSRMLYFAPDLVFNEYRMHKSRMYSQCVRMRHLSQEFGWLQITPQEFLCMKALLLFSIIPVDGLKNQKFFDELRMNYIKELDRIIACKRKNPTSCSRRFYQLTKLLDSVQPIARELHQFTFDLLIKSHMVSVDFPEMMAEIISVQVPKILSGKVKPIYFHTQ
The test can be described thus: AR antagonism, reporter gene assay in hAR/HEK293 cells. Particulars: HEK293 cells stably transfected with full-length human AR and androgen responsive luciferase reporter; co-treated with submaximal testosterone (usually 0.45 nM); 1% DMSO; triplicates. The class given is cell-based. On the procedure: Antagonism of test compounds for AR was measured by reporter gene assay in human embryonic kidney (HEK293) cells stably transfected with an expression vector encoding full-length human AR and androgen responsive luciferase reporter gene construct (hAR/HEK293 cells). To determine antagonism for hAR, the cells were treated simultaneously with increasing concentrations of the test compound and submaximal concentration of testosterone (usually 0.45 nM). The final DMSO concentration was 1%. All test compounds were studied in triplicates. The cells were incubated for […] before measurement of luciferase activity using Luciferase Assay System (Promega Corporation).

[1] abbreviates: human H295R adrenocortical carcinoma cells, overnight (16-19 h) with 17α-[21-3H]hydroxypregnenolone, 3H-acetic acid release, 1% DMSO, quadruplicates, read-out: CYP17 inhibition IC50.

As to `CCN(c1ccc(C#N)c(C(F)(F)F)c1)C1CC(n2ccnc2)CCC1(C)C` (single isomer, unassigned) [Ex. 46 cis-enantiomer 2, 4-((5-(1H-Imidazol-1-yl)-2,2-dimethylcyclohexyl)(ethyl)amino)-2-(trifluoromethyl)benzonitrile], the IC50 was found to be 49 nM against 17,20 lyase (CYP17) and 40 nM at full-length human AR.

For `CCN(c1ccc(C#N)c(C(F)(F)F)c1)C1CC=C(c2cncn2C(C)C)C1` (single isomer, unassigned) [Ex. 51 enantiomer 2, 4-(Ethyl(3-(1-isopropyl-1H-imidazol-5-yl)cyclopent-3-enyl)amino)-2-(trifluoromethyl)benzonitrile], the IC50 against 17,20 lyase (CYP17) is 166 nM; at full-length human AR, 17 nM.

`COc1cc(N(C)C2C=C(n3ccnc3)CCC2(C)C)ccc1C#N` (centres unmarked) [Ex. 252, 4-{[3-(1H-Imidazol-1-yl)-6,6-dimethylcyclohex-2-enyl](methyl)amino}-2-methoxybenzonitrile]: the IC50 at 17,20 lyase (CYP17) (setting [1]) stood at 33 nM; at full-length human AR it was 141 nM.

As for `CCN(c1ccc(C#N)c(C(F)(F)F)c1)C1CCC=C(c2cncn2CC)C1` (single isomer, unassigned; isomer 4) [Ex. 208 1,5-isomer, 4-(ethyl(3-(1-ethyl-1H-imidazol-5-yl)cyclohex-3-en-1-yl)-amino)-2-(trifluoromethyl)benzonitrile], the half-maximal inhibitory concentration (IC50) on 17,20 lyase (CYP17) was 137 nM; at full-length human AR, 34 nM.

As for `CCN(c1ccc(C#N)c(Cl)c1)C1CCCC(n2ccnc2)C1` (single isomer, unassigned; diastereomer 4) [Ex. 91 cis-diastereomer, 4-((3-(1H-imidazol-1-yl)cyclohexyl)(ethyl)amino)-2-chlorobenzonitrile], the IC50 against 17,20 lyase (CYP17) was 36 nM; at full-length human AR it was 64 nM.

In the case of `CCN(c1ccc(C#N)c(C(F)(F)F)c1)C1CC=C(c2cnco2)C1` (single isomer, unassigned) [Ex. 233 enantiomer 1, 4-(Ethyl(3-(oxazol-5-yl)cyclopent-3-enyl)amino)-2-(trifluoromethyl)benzonitrile], the IC50 at 17,20 lyase (CYP17) stood at 66 nM; on full-length human AR, 59 nM.

For `CCN(c1ccc(C#N)c(C(F)(F)F)c1)[C@H]1CCC[C@@H](c2ccncc2)C1` (relative stereo) [Ex. 61, cis-4-(Ethyl(3-(pyridin-4-yl)cyclohexyl)amino)-2-(trifluoromethyl)benzonitrile], the concentration for half-maximal inhibition (IC50) came out at 108 nM against 17,20 lyase (CYP17) and 35 nM at full-length human AR.

On to `CCN(c1ccc(C#N)c(C(F)(F)F)c1)C1CCCC(n2cncn2)C1` (single isomer, unassigned; diastereomer 4) [Ex. 209 cis-diastereomer, 4-((3-(1H-1,2,4-triazol-1-yl)cyclohexyl)(ethyl)amino)-2-(trifluoromethyl)-benzonitrile], for which the half-maximal inhibitory concentration (IC50) on 17,20 lyase (CYP17) turned out to be 154 nM; on full-length human AR, 56 nM.

For the compound `CCN(c1ccc(C#N)c(C(F)(F)F)c1)C1CC=C(n2ccnc2)C1(C)C` (centres unmarked) [Ex. 275, 4-((3-(1H-imidazol-1-yl)-2,2-dimethylcyclopent-3-en-1-yl)(ethyl)amino)-2-(trifluoromethyl)benzonitrile], the IC50 is 82 nM against 17,20 lyase (CYP17) and 63 nM on full-length human AR.

For the compound `CN(c1ccc(C#N)c(Cl)c1)[C@@H]1C=C(n2ccnc2)[C@H](O)CC1(C)C` (single isomer, unassigned; enantiomer 1) [Ex. 253(b), cis-2-Chloro-4-{[4-hydroxy-3-(1H-imidazol-1-yl)-6,6-dimethylcyclohex-2-enyl](methyl)amino}benzonitrile (enantiomer 1)], the half-maximal inhibitory concentration (IC50) against 17,20 lyase (CYP17) came out at 124 nM; on full-length human AR, 140 nM.

Turning to `CCN(c1ccc(C#N)c(C(F)(F)F)c1)C1CCC(n2ccnc2)C1` (single isomer, unassigned) [Ex. 86 trans-enantiomer 1, 4-((-3-(1H-imidazol-1-yl)cyclopentyl)(ethyl)amino)-2-(trifluoromethyl)benzonitrile], the values for the half-inhibitory concentration (IC50) on 17,20 lyase (CYP17) and on full-length human AR were 27 nM and 73 nM, respectively.

Consider `CCN(c1ccc(C#N)c(C(F)(F)F)c1)C1C=C(n2ccnc2)CCC1` (centres unmarked) [Ex. 63, 4-((3-(1H-imidazol-1-yl)cyclohex-2-en-1-yl)(ethyl)amino)-2-(trifluoromethyl)benzonitrile], for which the 50% inhibitory concentration (IC50) against 17,20 lyase (CYP17) is 70 nM; at full-length human AR it was 34 nM.

As for `CCn1cncc1C1=CCC(N(CC2CC2)c2ccc(C#N)c(C(F)(F)F)c2)C1` (racemic) [Ex. 226 racemate, 4-((Cyclopropylmethyl)(3-(1-ethyl-1H-imidazol-5-yl)cyclopent-3-en-1-yl)-amino)-2-(trifluoromethyl)benzonitrile], the IC50 against 17,20 lyase (CYP17) was 43 nM; on full-length human AR, 29 nM.

For the compound `CCN(c1ccc(C#N)c(C(F)(F)F)c1)C1C=C(n2ccnc2)C2(CC1)CC2` (centres unmarked) [Ex. 107, 4-((4-(1H-imidazol-1-yl)spiro[2.5]oct-4-en-6-yl)(ethyl)amino)-2-(trifluoromethyl)benzonitrile], the IC50 is 33 nM on 17,20 lyase (CYP17) and 51 nM at full-length human AR.

As for `CN(c1ccc(C#N)c(C(F)F)c1)C1C=C(n2ccnc2)CCC1(C)C` (single isomer, unassigned) [Ex. 240(b), 4-((3-(1H-imidazol-1-yl)-6,6-dimethylcyclohex-2-enyl)(methyl)amino)-2-(difluoromethyl)benzonitrile (pure enantiomer)], the IC50 on 17,20 lyase (CYP17) (setting [1]) was found to be 33 nM; on full-length human AR it was 52 nM.

As to `CCN(c1ccc(C#N)c(Cl)c1C)C1CCCC(n2ccnc2)C1` (single isomer, unassigned) [Ex. 13, 4-((3-(1H-imidazol-1-yl)cyclohexyl)(ethyl)amino)-2-chloro-3-methylbenzonitrile], the IC50 was 92 nM against 17,20 lyase (CYP17) and 60 nM on full-length human AR.

As to `CCN(c1ccc(C#N)c(C(F)(F)F)c1)[C@@H]1CCCN(c2ccncc2F)C1` [Ex. 160, (R)-4-(Ethyl(1-(3-fluoropyridin-4-yl)piperidin-3-yl)amino)-2-(trifluoromethyl)benzonitrile], the values for the IC50 at 17,20 lyase (CYP17) and at full-length human AR were 111 nM and 27 nM, respectively.

For the compound `CCN(c1ccc(C#N)c(Cl)c1)C1CC=C(c2cncn2CC)C1` (racemic) [Ex. 227 racemate, 2-Chloro-4-(ethyl(3-(1-ethyl-1H-imidazol-5-yl)cyclopent-3-en-1-yl)amino)-benzonitrile], the 50% inhibitory concentration (IC50) against 17,20 lyase (CYP17) came out at 19 nM; on full-length human AR, 57 nM.

For `CCN(c1ccc(C#N)c(C(F)(F)F)c1)C1CC(CO)=C(n2ccnc2)C1(C)C` (single isomer, unassigned) [Ex. 270 enantiomer 1, 4-(Ethyl(4-(hydroxymethyl)-3-(1H-imidazol-1-yl)-2,2-dimethylcyclopent-3-en-1-yl)amino)-2-(trifluoromethyl)benzonitrile], the IC50 on 17,20 lyase (CYP17) was 321 nM; on full-length human AR, 56 nM.
